Reference: patent US11389456B2, “Compounds and methods for treating oxalate-related diseases” (OxaluRx, Inc., priority 2018, dated 2022)
pIC50: −log10 of the molar value. ≈ marks a conversion by molar mass, not a printed value.

Key:
[1] = target: recombinant full-length human hydroxyacid oxidase 1 (HAO1), the equivalent of hGOX (Homo sapiens (Human), UniProt Q9UJM8); test: In-vitro human glycolate oxidase (hGOX) assay (Amplex red/HRP fluorescence); assay type: biochemical
Protocol: Biological Activity Assay: In-Vitro Human Glycolate Oxidase (hGOX) Assay
The in-vitro glycolate oxidase assay was performed using recombinant full-length human hydroxyacid oxidase 1 (HAO1), the equivalent of hGOX. […] Purified HAO1 was dissolved in assay buffer consisting of 10 mM NaCl, 110 mM KCl, 2 mM MgCl2, 50 mM HEPES (pH 7.4) and 0.01% Triton™ X-100.

[2] = Solubility in phosphate buffered saline (PBS), pH 7.4; assay type: physicochemical; conditions: phosphate buffer (PBS), aqueous buffer, kinetic from dmso stock; phosphate buffered saline pH 7.4, 1% DMSO, 1 hour shaking at room temperature
Protocol: (§1) For testing compound solubility in phosphate buffered saline (PBS), compound stock solutions were prepared at 10 mM in 100% DMSO. For testing in aqueous solution, the phosphate buffer was replaced with deionized, distilled water. Eleven grams Na2HPO4 (FW: 141.96 g/mol) and 3.5 g NaH2PO4.2H2O (FW: 156.03 g/mol) was added to 1 L Milli-Q water and adjusted to a pH to 7.4 with phosphoric acid or sodium hydroxide. For incubation, media were preheated to 37° C. Eight μL aliquots of reference and test compound stock solutions (10 mM) were added into 792 μL of 100 mM phosphate buffer (pH 7.4). The final DMSO concentration was 1%. Sample tubes were shaken for 1 hour at 1000 rpm at room temperature.
(§2) The calibration curve was prepared with 300-μM spiking solution (SS) in MeOH:acetonitrile (4:1). Six μL of 10 mM compound was added in 194 μL MeOH/acetonitrile (4:1). Samples were centrifuged for 10 minutes at 12,000 rpm to precipitate undissolved particles. Supernatants were transferred to a new tube or plate and dilute 10-fold and 100-fold with 100 mM buffer. Samples were prepared for LC-MS/MS analysis by adding 5 μL each sample (undiluted, 10-fold diluted, and 100-fold diluted) and 5 μL of standard curve samples to 95 μL of acetonitrile (containing internal standard).

[3] = Solubility in aqueous solution (deionized, distilled water); assay type: physicochemical; conditions: kinetic from dmso stock, 1% DMSO, read-out: Aqueous Solubility H2O
Protocol: as §1, §2

[4] = Metabolic stability in human liver microsomal preparation; assay type: in vitro ADME; conditions: pH 7.4, human liver microsomes, NADPH, 37° C.; for half-life at 1 μM: 0-45 min, read-out: Metabolic Stability t1/2
Protocol: For evaluating the metabolic stability in human liver microsomal preparation, three buffers were prepared. Buffer A had 1.0 L of 0.1 M monobasic potassium phosphate buffer containing 1.0 mM EDTA. Buffer B had 1.0 L of 0.1 M dibasic potassium phosphate buffer containing 1.0 mM EDTA. Buffer C had 0.1 M potassium phosphate buffer, 1.0 mM EDTA, adjusted to a pH 7.4 via titrating 700 mL buffer B with buffer A. Reference compound (ketanserin) and test compounds spiking solutions (500 μM) were prepared by adding 10 μL of 10 mM DMSO stock compound solution into 190 μL acetonitrile. A volume of 1.5 μL 500 μM spiking solution and 18.75 μL 20 mg/mL human liver microsomes were added into 479.75 μL of Buffer C on ice. A stock solution of 6 mM NADPH was prepared by dissolving NADPH into Buffer C.
Wells on an assay plate were iced and filled with 30 μL 1.5-μM spiking solution containing 0.75 mg/mL microsomes solution and designated for different timepoints (0-, 5-, 15-, 30-, 45-min). For the 0-min timepoint, 135 μL acetonitrile containing internal standard were added followed by 15 μL of NADPH stock solution (6 mM). All other plates were preincubated at 37° C. for 5 minutes and 15 μL NADPH stock solution (6 mM) were added to the plates to start the reaction. At 5-min, 15-min, 30-min, and 45-min, 135 μL acetonitrile containing internal standard were added to the wells of corresponding plates, respectively, to stop the reaction. After quenching, the plates were shaken on the vibrator (IKA, MTS 2/4) for 10 min at 600 rpm and then centrifuged at 5594×g for 15 minutes (Thermo Multifuge×3R). Fifty μL supernatant from each well were transported into a 96-well sample plate containing 50 μL of ultra-pure water (Millipore, ZMQS50F01) for LC/MS analysis.

[5] = Stability in human plasma; assay type: in vitro ADME; conditions: read-out: Plasma Stability T1/2
Protocol: Stability in Human Plasma.
Stock compounds were prepared for testing the stability in human plasma. First, 0.05 M sodium phosphate and 0.07 M NaCl buffer, pH 7.4, were pre-heated. In deionized water, 14.505 g/L Na2HPO 12H2O, 1.483 g/L NaH2PO4.2H2O and 4.095 g/L NaCl were dissolved. The basic solution was titrated with the phosphoric acid to pH 7.40. Frozen plasma was quickly thawed at 37° C. The plasma was centrifuged at 3,000 rpm for 8 minutes to remove clots, then pipetted and pooled as the plasma stock for the experiment. Only plasma within the range of pH 7.4 to pH 8 was used. If higher than pH 8, the plasma was discarded. The initial pH of the plasma was not adjusted to pH 7.4 with acid or by bubbling with carbon dioxide. By using a 5% carbon dioxide incubator and PBS buffer, a pH of 7.4 will be reached after the 4-hour equilibrium dialysis time. Plasma was iced until use.
Spiking solution A with 0.5 mM testing compounds was prepared by adding 10 μL of 10 mM test compounds stock solution to 190 μL DMSO. Spiking solution B with 0.02 mM testing compound was prepared by adding 40 μL of spiking solution A to 960 μL of […] sodium phosphate buffer with 0.5% BSA. The plasma and spiking solution B were prewarmed at 37° C. for 5 minutes. Ten μL of pre-warmed spiking solution B was added into the wells designated for all the time points (5, 15, 30, 45, 60 minutes). For the 0-minute timepoint, 400 μL acetonitrile containing internal standard were added to the wells of 0-minute plate and then 90 μL plasma were added. For the other timepoints, 90 μL of pre-warmed plasma were added into the wells (0, 5, 15, 30, 45, 60 minutes) and the timing was started. At 5, 15, 30, 45, 60 minutes, 400 μL acetonitrile containing internal standard were added to the wells of corresponding plates, respectively, to stop the reaction. After quenching, the plates were shaken on a vibrator (IKA, MTS 2/4) for 10 minutes at 600 rpm and then centrifuged at 5594×g for 15 minutes (Thermo Multifuge×3R). Fifty μL of supernatant was transferred from each well into a 96-well sample plate containing 50 μL ultra-pure water (Millipore, ZMQS50F01) for LC/MS analysis.

[6] = Protein binding (plasma equilibrium dialysis); assay type: in vitro ADME; conditions: 5 hours at 37° C.; for fraction unbound at 5 h, 1 μM: read-out: Protein Binding Fraction Bound (converted)
Protocol: For testing protein binding of stock compounds solubilized in DMSO, spiking solutions of test and reference compounds were prepared. Solution A (0.5 mM) was prepared by adding 10 μL of 10 mM stock solution into 190 μL of DMSO. Solution B (0.02 mM) was prepared by adding 8 μL of Solution A into 192 μL of 0.05 M sodium phosphate buffer. The final DMSO concentration in Solution B was 4%.
To prepare test and reference compounds in plasma, a 96-well plate with 380 μL aliquots of plasma in the wells designed for plasma and buffer, respectively. Twenty μL of Solution B (0.02 mM of test and reference compounds) were spiked into the pre-loaded plasma in the 96-well plate. The final test concentration is 1 μM containing 0.2% DMSO.
For dialysis sample loading a plasma again buffer system was prepared by applying aliquots of 100 μL of blank dialysis buffer to the receiver side of dialysis chambers and then applying aliquots of 100 μL of the plasma spiked with test and reference compounds to the donor side of the dialysis chamber. A 25-μL aliquot of the plasma spiked with test and reference compounds was added into a 96-well sample preparation plate as T″0″ plasma samples. Aliquots were mixed with the same volume of blank buffer (50:50, volume:volume). Samples were quenched with 200 μL of acetonitrile containing internal standard. The dialysis block was covered and a shaken at 60 rpm for 5 hours at 37° C.
After a 5-hour incubation, dialyzed samples were prepared from 25-μL aliquots from both the donor and receiver sides of the dialysis apparatus into new sample preparation plates. The aliquots were mixed with same volume of opposite matrixes. The samples were quenched with 200 μL acetonitrile containing internal standard. All 0-hour and 5-hour samples were vortexed at 600 rpm for 10 min followed by centrifugation at 5594×g for 15 minutes (Thermo Multifuge×3R). Fifty μL of the supernatants were transferred to anew 96-well plate and mixed with 50 μL Milli-Q water. The sample plate was covered and frozen at −20° C. until LC/MS/MS analysis.

Chain of recombinant full-length human hydroxyacid oxidase 1 (HAO1), the equivalent of hGOX (Q9UJM8 whole entry): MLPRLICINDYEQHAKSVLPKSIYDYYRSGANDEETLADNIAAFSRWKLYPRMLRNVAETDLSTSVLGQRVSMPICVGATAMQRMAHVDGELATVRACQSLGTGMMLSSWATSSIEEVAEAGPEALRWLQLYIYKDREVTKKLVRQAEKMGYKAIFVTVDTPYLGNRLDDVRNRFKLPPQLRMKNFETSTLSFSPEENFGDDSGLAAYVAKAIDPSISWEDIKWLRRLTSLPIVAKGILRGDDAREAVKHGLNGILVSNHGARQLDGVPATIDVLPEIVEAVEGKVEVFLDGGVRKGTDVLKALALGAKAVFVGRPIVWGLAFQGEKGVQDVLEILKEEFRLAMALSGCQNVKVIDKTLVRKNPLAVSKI

Row | SMILES | pIC50 [1] | solubility at 1 h [2] | solubility at 1 h [3] | CLint scaled at 1 μM [4] | half-life at 1 μM [4] | half-life at 2 μM [5] | recovery at 5 h, 1 μM [6] | fraction unbound at 5 h, 1 μM [6]
1 | O=C(O)c1nn[nH]c1Oc1cccc(-c2cc(Cl)cc(Cl)c2)c1 [Example I-302, 5-((3′,5′-Dichloro-[1,1′-biphenyl]-3-yl)oxy)-1H-1,2,3-triazole-4-carboxylic acid] | 8.52 | 112 µM (≈ 39 µg/mL) | 90.7 µM (≈ 31.7 µg/mL) | < 0.15 mL/min/kg | > 83.3 h | 1.67 h | 104% | 0.017
2 | C#Cc1cccc(Oc2[nH]nnc2C(=O)O)c1 [Example I-288, 5-(3-ethynylphenoxy)-1H-1,2,3-triazole-4-carboxylic acid] | 7.62 | 92.4 µM (≈ 21.2 µg/mL) | 80.6 µM (≈ 18.5 µg/mL) | 3.11 mL/min/kg | 9.31 h | 1.96 h | 110% | 0.025
3 | O=C(O)c1nn[nH]c1Oc1ccc(C2CCCC2)cc1 [Example I-265, 5-(4-Cyclopentylphenoxy)-1H-1,2,3-triazole-4-carboxylic acid] | 7.60 | 107 µM (≈ 29.2 µg/mL) | 100 µM (≈ 27.4 µg/mL) | 18.6 mL/min/kg | 1.55 h | 1.44 h | 110% | –
4 | Cc1ccc(-c2ccc(Sc3[nH]nnc3C(=O)O)cc2)cc1 [Example I-129, 5-((4′-Methyl-[1,1′-biphenyl]-4-yl)thio)-1H-1,2,3-triazole-4-carboxylic acid] | 7.39 | 116 µM (≈ 36.1 µg/mL) | 72.7 µM (≈ 22.6 µg/mL) | 21.6 mL/min/kg | 1.34 h | 1.44 h | 113% | –
5 | O=C(O)c1nn[nH]c1Oc1ccc(C2CCC2)cc1 [Example I-275, 5-(4-Cyclobutylphenoxy)-1H-1,2,3-triazole-4-carboxylic acid] | 7.66 | 115 µM (≈ 29.8 µg/mL) | 110 µM (≈ 28.5 µg/mL) | 18.3 mL/min/kg | 1.58 h | 1.7 h | 98.5% | –
6 | CCCC(C)c1cccc(Oc2[nH]nnc2C(=O)O)c1 (centres unmarked) [Example I-277] | 7.19 | 113 µM (≈ 31.1 µg/mL) | 97.2 µM (≈ 26.8 µg/mL) | 8.56 mL/min/kg | 3.38 h | 2.71 h | 108% | 0.003
7 | CC(C)=Cc1cccc(Oc2[nH]nnc2C(=O)O)c1 [Example I-286, 5-(3-(2-Methylprop-1-en-1-yl)phenoxy)-1H-1,2,3-triazole-4-carboxylic acid] | 7.85 | 92.6 µM (≈ 24 µg/mL) | 95.8 µM (≈ 24.8 µg/mL) | 15.1 mL/min/kg | 1.92 h | 3.45 h | 103% | 0.002
8 | O=C(O)c1nn[nH]c1Oc1ccc(-c2ccc3c(c2)OCO3)cc1 [Example I-304, 5-(4-(Benzo[d][1,3]dioxol-5-yl)phenoxy)-1H-1,2,3-triazole-4-carboxylic acid] | 8.40 | 111 µM (≈ 36.2 µg/mL) | 115 µM (≈ 37.4 µg/mL) | 5.47 mL/min/kg | 5.3 h | 6.68 h | 105% | 0.007
9 | O=C(O)c1nn[nH]c1Oc1ccc(-c2ccc3ccccc3c2)cc1 [Example I-177, 5-(4-(Naphthalen-2-yl)phenoxy)-1H-1,2,3-triazole-4-carboxylic acid] | 7.92 | 89.3 µM (≈ 29.6 µg/mL) | 45.7 µM (≈ 15.1 µg/mL) | 3.07 mL/min/kg | 9.43 h | 1.12 h | 99.3% | –
